{
  "source": "patent US4391821A",
  "about": "“7-Substituted benzopyranes and process for the preparation thereof” (Chinoin Gyogyszer es Vegyeszeti Termekek Gyara R.T., priority 1980, dated 1983)",
  "key": {"[1]": {"system": "blood pressure lowering and heart frequency increasing effects induced by isoproterenol", "experiment": "Isoproterenol-induced blood pressure lowering and heart frequency increase in cats", "format": "in vivo", "settings": "LD50/10 i.v., 2 mg/kg i.v. isoproterenol"}, "[2]": {"system": "blood pressure and heart frequency", "format": "in vivo, cats"}, "rabbit ilium": {"system": "rabbit ilium", "experiment": "Spasmolytic effect on rabbit ilium"}, "rat intestine": {"system": "rat intestine", "experiment": "Spasms induced in rat intestine by acetylcholine or barium chloride"}, "[3]": {"experiment": "Acute toxicity in mice i.v.", "settings": "mouse, in vivo, iv"}, "blood pressure": {"system": "blood pressure", "experiment": "Blood pressure, heart frequency and breathing in rabbits", "format": "in vivo", "settings": "i.v. or enterally", "excerpt": "(§1) Propanolamines of formula (Ib) [drawing 4] constitute another special subgroup of compounds of formula (I). In formula (Ib) R1 and R2 are as defined above. These compounds have also very advantageous pharmaceutical effects, which, however, differ from the effects of the butanolamines of formula (Ia)."}, "rat Langendorff-heart": {"system": "rat Langendorff-heart", "experiment": "Coronary flow in rat Langendorff-heart", "settings": "10 μg/0,1 ml dose", "excerpt": "as §1"}, "[4]": {"system": "arrhythmia induced by 30 μg/kg i.v. aconitin", "experiment": "Aconitin-induced arrhythmia in rats", "format": "in vivo", "settings": "LD50/10 i.v.", "excerpt": "(§2) In formula (Ia) R1 and R2 are as defined above, preferably R1 is branched alkyl or cycloalkyl, and R2 is hydrogen."}, "[5]": {"system": "ventricular tadhycardia provoked by Strophantin", "experiment": "Strophantin-provoked ventricular tachycardia in anesthetized cats", "format": "in vivo", "excerpt": "as §2"}, "[6]": {"system": "ventricular fibrillation threshold", "experiment": "Ventricular fibrillation threshold in open-chested anesthetized cats", "format": "in vivo", "excerpt": "as §2"}, "[7]": {"system": "guinea pig isolated left auricle", "experiment": "Effective refractory period in guinea pig isolated left auricle (electrophysiology)", "settings": "5×10^-5 M", "excerpt": "(§3) The antiisoproterenol effect of the compound is moderated."}, "[8]": {"system": "guinea pig isolated left auricle", "experiment": "Antiisoproterenol effect in guinea pig isolated left auricle", "excerpt": "as §3"}, "trachea preparation": {"system": "trachea preparation", "experiment": "Antiisoproterenol effect in trachea preparation", "excerpt": "as §3"}, "β-receptor": {"system": "β-receptor", "experiment": "Antiisoproterenol effect, overall and concentration curves", "excerpt": "as §3"}, "[9]": {"system": "increase of the T-wave in the electrocardiogram induced by ornithine-vasopressin", "experiment": "Ornithine-vasopressin-induced T-wave increase in ECG of rabbits anesthetized with urethane (antianginic)", "format": "in vivo", "settings": "LD50/40", "excerpt": "From the pharmaceutical point of view the strong antianginic effect of our compounds of formula (Ia) is very important."}},
  "data": [
    {"compound": "CC1CCc2ccc(OCC(O)CNC3CCCCC3)cc2O1", "note": "(centres unmarked) [1-(2-methyl-3,4-dihydro-2H-1-benzopyrane-7-yloxy)-3-cyclohexylamino-2-propanol]", "values": [
      {"measurement": "inhibition of blood pressure lowering and heart frequency increasing effects induced by isoproterenol", "setting": "[1]", "value": "inhibits strongly"}
    ]},
    {"compound": "Cc1cc(=O)c2ccc(OCC(O)CNC(C)(C)C)cc2o1", "note": "(centres unmarked) [1-(2-methyl-4H-1-benzopyrane-4-one-7-yloxy)-3-(1,1-dimethylethylamino)-2-propanol]", "values": [
      {"measurement": "reduction of blood pressure", "setting": "[2]; LD50/20 i.v., anesthetized cats", "value": 50.2, "unit": "%"},
      {"measurement": "effect on heart frequency", "setting": "[2]; in vivo, iv", "value": "without significantly affecting their heart frequency"},
      {"measurement": "spasmolytic effect", "setting": "rabbit ilium", "value": "spasmolytic agent with parasympatholytic and direct striped muscle effects"},
      {"measurement": "effect against spasms induced by acetylcholine", "setting": "rat intestine; acetylcholine", "value": "effective"},
      {"measurement": "effect against spasms induced by barium chloride", "setting": "rat intestine; barium chloride", "value": "effective"}
    ]},
    {"compound": "CC(C)NCC(O)COc1ccc2c(c1)OCCC2", "note": "(centres unmarked) [1-(3,4-dihydro-2H-1-benzopyrane-7-yloxy)-3-(1-methylethylamino)-2-propanol]", "values": [
      {"measurement": "blood pressure lowering", "setting": "[2]; LD50/320 i.v., anesthetized cats", "value": "33,5%"},
      {"measurement": "LD50", "setting": "[3]", "value": 66, "unit": "mg/kg"}
    ]},
    {"compound": "CC(C)NCC(O)COc1ccc2c(c1)OCC(c1ccccc1)C2", "note": "(centres unmarked) [1-(3-phenyl-3,4-dihydro-2H-1-benzopyrane-7-yloxy)-3-(1-methylethylamino)-2-propanol]", "values": [
      {"measurement": "blood pressure lowering", "setting": "blood pressure", "value": "significant and long-lasting blood pressure lowering"},
      {"measurement": "effect on heart frequency, volume of breathing and frequency of breathing", "setting": "blood pressure", "value": "without affecting the heart frequency, the volume of breathing and the frequency of breathing"},
      {"measurement": "coronary flow", "setting": "rat Langendorff-heart", "value": "increases the coronary flow"}
    ]},
    {"compound": "OC(CCNC1CCCCC1)COc1ccc2c(c1)OC(c1ccccc1)CC2", "note": "(centres unmarked) [4-cyclohexylamino-1-(2-phenyl-3,4-dihydro-2H-1-benzopyrane-7-yloxy)-2-butanol]", "values": [
      {"measurement": "effect on arrhythmia induced by aconitin", "setting": "[4]", "value": "revokes arrhythmia"},
      {"measurement": "time for which ventricular tachycardia provoked by Strophantin is suspended", "setting": "[5]", "value": 19, "unit": "min"},
      {"measurement": "ventricular fibrillation threshold", "setting": "[6]", "value": "remarkably increases"},
      {"measurement": "ventricular fibrillation threshold, effect compared with Propranolol", "setting": "[6]; versus Propranolol", "value": "stronger effect that that of Propranolol"},
      {"measurement": "effect on effective refractory period compared with Practolol", "setting": "[7]; versus Practolol", "value": "stronger by nearly an order of magnitude than that of Practolol"},
      {"measurement": "effect on effective refractory period compared with Propranolol", "setting": "[7]; versus Propranolol", "value": "almost as strong as the effect of Propranolol"},
      {"measurement": "concentration with antiisoproterenol effect in left auricle", "setting": "[8]", "value": 50, "unit": "µM"},
      {"measurement": "concentration with antiisoproterenol effect in trachea preparation", "setting": "trachea preparation", "value": "10^-4 M"},
      {"measurement": "antiisoproterenol effect", "setting": "β-receptor; overall", "value": "moderated"},
      {"measurement": "character of the antiisoproterenol effect", "setting": "β-receptor; runs of the concentration curves", "value": "not of a competitive character"}
    ]},
    {"compound": "OC(CCNC1CCCCC1)COc1ccc2c(c1)OCC(c1ccccc1)C2", "note": "(centres unmarked) [4-cyclohexylamino-1-(3-phenyl-3,4-dihydro-2H-1-benzopyrane-7-yloxy)-2-butanol]", "values": [
      {"measurement": "elimination of the increase of the T-wave in the electrocardiogram", "setting": "[9]; rabbits anesthetized with urethane, 0.5 E/kg ornithine-vasopressin", "value": "eliminates practically completely"},
      {"measurement": "effect on T-wave increase compared with Propranolol", "setting": "[9]; versus Propranolol", "value": "significantly surpasses the effect of Propranolol"}
    ]}
  ]
}
